Measured values as given in ChEMBL document CHEMBL1128951, “6-(4-Phenyl-benzyloxy-methyl) guvacine. Synthesis, GABA uptake inhibitor and muscarinic properties” (Bioorg Med Chem Lett, 1996).

Experiments:
[1] = biological target: T1, Muscarinic acetylcholine receptor M2 (Homo sapiens) (UniProt P08172); test: Compound was evaluated for binding affinity by displacement of [3H]NMS from muscarinic M2 receptor at concentration 100 nM.
T1 sequence (whole entry): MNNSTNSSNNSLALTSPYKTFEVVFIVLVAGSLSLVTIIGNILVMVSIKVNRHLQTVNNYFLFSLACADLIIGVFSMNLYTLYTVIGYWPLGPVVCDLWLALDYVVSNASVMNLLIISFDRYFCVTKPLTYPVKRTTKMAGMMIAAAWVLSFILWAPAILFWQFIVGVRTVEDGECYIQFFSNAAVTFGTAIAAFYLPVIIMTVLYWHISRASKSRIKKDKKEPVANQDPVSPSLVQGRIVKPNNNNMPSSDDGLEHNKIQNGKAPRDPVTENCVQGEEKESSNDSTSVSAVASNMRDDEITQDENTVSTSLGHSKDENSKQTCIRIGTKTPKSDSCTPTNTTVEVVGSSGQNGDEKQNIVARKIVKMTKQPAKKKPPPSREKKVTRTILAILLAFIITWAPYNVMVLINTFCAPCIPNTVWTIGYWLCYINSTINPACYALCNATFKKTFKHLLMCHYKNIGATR

[2] = biological target: T2, Muscarinic acetylcholine receptor M1 (Homo sapiens) (UniProt P11229); test: Compound was evaluated for binding affinity by displacement of [3H]pirenzepine from muscarinic M1 receptor at concentration 100 nM.
T2 sequence (whole entry): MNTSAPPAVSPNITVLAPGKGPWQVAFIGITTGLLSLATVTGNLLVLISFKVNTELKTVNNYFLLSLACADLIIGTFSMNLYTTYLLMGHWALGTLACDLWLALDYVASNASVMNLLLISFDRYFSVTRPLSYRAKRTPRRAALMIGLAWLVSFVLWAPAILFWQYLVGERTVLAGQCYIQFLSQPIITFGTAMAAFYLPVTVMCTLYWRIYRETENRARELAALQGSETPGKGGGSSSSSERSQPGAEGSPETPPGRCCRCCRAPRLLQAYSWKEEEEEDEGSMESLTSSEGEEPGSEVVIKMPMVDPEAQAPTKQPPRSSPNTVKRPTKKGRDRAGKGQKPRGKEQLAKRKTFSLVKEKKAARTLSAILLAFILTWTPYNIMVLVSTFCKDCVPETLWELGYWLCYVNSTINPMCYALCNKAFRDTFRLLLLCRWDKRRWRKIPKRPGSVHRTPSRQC

[3] = In vitro inhibitory activity against gamma-aminobutyric acid (GABA) uptake; type: functional

inhibition [1] [%]	inhibition [2] [%]	IC50 [3] [nM]	Structure (SMILES)
59	57	–	O=C(O)C1=CCC(COCc2ccc(-c3ccccc3)cc2)NC1 (stereo unspecified)
–	–	210	O=C(O)C1=CCCN(CCC=C(c2ccccc2)c2ccccc2)C1
–	–	100	O=C(O)C1=CCC(CCC(c2ccccc2)c2ccccc2)NC1 (stereo unspecified)
14	12	–	CCOC(=O)C1=CCC(COCc2ccc(-c3ccccc3)cc2)NC1 (stereo unspecified)
